Laboratory results taken from ChEMBL document CHEMBL3804804, “Synthesis and antimycobacterial activity of N-(2-aminopurin-6-yl) and N-(purin-6-yl) amino acids and dipeptides” (Bioorg Med Chem Lett, 2016).

Test system: Mycobacterium tuberculosis
Test: Antimycobacterial activity against multidrug-resistant Mycobacterium tuberculosis harbouring Beijing genotype with combination of mutations of Ser 53-Leu 315 and Ser-Thr in rpoB and katG genes after 10 days by micro broth dilution method
Assay type: functional

Question: For `CC(=O)Nc1nc(N2CCC[C@H]2C(=O)OC(C)(C)C)c2nc[nH]c2n1`, which MIC is on record?
Answer: 6.25 µg/mL

Question: Which MIC does the source give for `CC(=O)Nc1nc(NCC(=O)O)c2nc[nH]c2n1` here?
Answer: 0.7 µg/mL

Question: Which MIC does the source give for `CC(C)[C@H](Nc1nc(N)nc2[nH]cnc12)C(=O)O` here?
Answer: 6.25 µg/mL

Question: Which MIC does the source give for `CSCC[C@H](NC(=O)CNc1nc(N)nc2[nH]cnc12)C(=O)O.O` here?
Answer: 3.1 µg/mL

Question: For `Nc1nc(NCC(=O)N[C@@H](CCC(=O)O)C(=O)O)c2nc[nH]c2n1`, which MIC is on record?
Answer: 0.7 µg/mL

Question: With `COC(=O)[C@H](CCSC)NC(=O)CNc1nc(NC(C)=O)nc2[nH]cnc12` as the molecule, how does the MIC read?
Answer: 3.1 µg/mL

Question: With `COC(=O)CNc1nc(N)nc2[nH]cnc12.Cl.Cl` as the molecule, how does the MIC read?
Answer: 6.25 µg/mL

Question: Which MIC does the source give for `O.O=C(O)CC[C@H](NC(=O)CNc1ncnc2[nH]cnc12)C(=O)O` here?
Answer: 0.7 µg/mL

Question: With `COC(=O)[C@H](Cc1ccccc1)NC(=O)CNc1ncnc2[nH]cnc12` as the molecule, how does the MIC read?
Answer: 1.5 µg/mL

Question: With `CC1COc2c(N3CCN(C)CC3)c(F)cc3c(=O)c(C(=O)O)cn1c23` (configuration not stated) [OFLOXACIN] as the molecule, how does the MIC read?
Answer: 0.1 µg/mL

Test system: not listed separately
Test: Selectivity index, ratio of IC50 for human FEH cells to MIC for multidrug-resistant Mycobacterium tuberculosis
Assay type: toxicity, cell-based

Question: Which selectivity ratio does the source give for `Nc1nc(NCC(=O)N[C@@H](CCC(=O)O)C(=O)O)c2nc[nH]c2n1` here?
Answer: > 25

Question: For `O.O=C(O)CC[C@H](NC(=O)CNc1ncnc2[nH]cnc12)C(=O)O`, which selectivity ratio is on record?
Answer: > 25
